Legend:
Format in all cases: cell-based
mouse P2X4 = target: T1, mouse P2X4 (Mus musculus, UniProt Q9JJX6); assay: FLIPR assay, mouse P2X4 1321N1 Astrocytoma Cells; details: agonist Mg-ATP at EC80
T1 construct: expressed in transfected cells; host or cells: 1321N1 astrocytoma cells
T1 sequence (Q9JJX6 1-388): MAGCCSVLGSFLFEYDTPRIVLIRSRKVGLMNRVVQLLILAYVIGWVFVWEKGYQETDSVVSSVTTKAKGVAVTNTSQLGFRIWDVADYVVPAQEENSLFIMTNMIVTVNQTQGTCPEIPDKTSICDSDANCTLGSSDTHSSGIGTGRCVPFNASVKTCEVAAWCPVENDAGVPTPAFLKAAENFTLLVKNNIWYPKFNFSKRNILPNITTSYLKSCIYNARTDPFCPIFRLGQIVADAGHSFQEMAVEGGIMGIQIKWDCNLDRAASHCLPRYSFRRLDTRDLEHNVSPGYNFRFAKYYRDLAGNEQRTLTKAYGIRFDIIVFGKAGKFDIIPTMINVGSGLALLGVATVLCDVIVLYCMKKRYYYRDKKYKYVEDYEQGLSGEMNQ
Method: (§1) 1321N1 Astrocytoma cells stably expressing human P2X4 or rat P2X4 or mouse P2X4 were plated in Collagen ITO-treated microplate at a seeding density of 10000 cells/well and incubated overnight. P2X4 function was assessed by measuring intracellular calcium changes using the calcium-chelating dye Fluo8-AM (Molecular Devices) on a fluorescent imaging plate reader (FLEX/FLIPR station; Molecular Devices). On the day of the assay, the medium was removed and the cells were incubated for 30 min at […] and 5% CO2 in 30 μL of dye buffer (Hank's balanced salt solution, 10 mM HEPES, 1.8 mM CaCl2, 1 mM MgCl2, 2 mM probenecid, 5 mM D-glucose monohydrate, 5 μM Fluo8-AM, pH=7.4). Compounds diluted in probenecid buffer (Hank's balanced salt solution, 10 mM HEPES, 1.8 mM CaCl2, 1 mM MgCl2, 2 mM probenecid, 5 mM D-glucose monohydrate, pH=7.4) were added in a volume of 10 μL and allowed to incubate for 30 min at room temperature. The final assay DMSO concentration was 0.25%. The agonist, Mg-ATP (Sigma), was added in a volume of 10 μL at a concentration representing the EC80 value. EC80 was determined to be 0.5 μM for human and mouse P2X4 and 5 μM for rat P2X4. The fluorescence was measured for an interval of 120 sec at 2 sec intervals. The excitation and emission wavelengths used to monitor fluorescence were 470-495 nm and 515-575 nm, respectively. The data was analyzed based on the increase in peak relative fluorescence units (RFU) compared to the basal fluorescence and the data was normalized to the agonist control. The compounds were tested in triplicates per plate and mean values were plotted in Excel XLFit to determine IC50 values, percentage of maximal inhibition and the Hill coefficients.

human P2X4 [1] = target: T2, human P2X4 (Homo sapiens, UniProt Q99571); assay: Human P2X4 HEK Cell Electrophysiology Assay A (PatchLiner); set-up: expressed in transfected cells; host or cells: HEK293; details: ATP 5 μM, -80 mV; read-out: Human P2X4 HEK Cells (PatchLiner Electrophysiology) avg IC50
T2 sequence (Q99571 1-388): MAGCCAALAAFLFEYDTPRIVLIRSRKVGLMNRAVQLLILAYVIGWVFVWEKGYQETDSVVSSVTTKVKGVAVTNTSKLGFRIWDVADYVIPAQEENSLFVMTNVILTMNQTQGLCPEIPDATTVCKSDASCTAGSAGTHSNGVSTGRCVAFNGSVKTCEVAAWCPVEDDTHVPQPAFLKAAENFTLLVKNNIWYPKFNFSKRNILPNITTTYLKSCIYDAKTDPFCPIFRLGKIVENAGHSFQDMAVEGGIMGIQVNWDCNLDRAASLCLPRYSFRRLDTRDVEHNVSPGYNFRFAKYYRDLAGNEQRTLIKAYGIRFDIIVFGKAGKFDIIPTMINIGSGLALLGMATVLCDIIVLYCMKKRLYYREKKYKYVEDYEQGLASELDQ
Method: HEK293 cells stably expressing human P2X4 were seeded in T75 cell culturing flasks at a density of 7*106 cells and incubated overnight. P2X4 function was assayed using the automated patch clamp platform PatchLiner (Nanion) in single hole mode. Composition of extracellular buffer was (in mM) NaCl 145, KCl 4, HEPES 10, CaCl2) 1, MgCl2 0.5, D-glucose monohydrate 10, pH=7.4. The intracellular buffer contained (in mM): CsF 135, EGTA 1, HEPES 10, NaCl 10, pH 7.2. On the day of the assay, cells were harvested using Accumax (Sigma) and were resuspended in extracellular buffer. The ligand agonist, adenosine 5′-trisphosphate (ATP, 5 μM) was added in a volume of 5 μL, directly washed off by extracellular buffer (40 μL). The cells were voltage clamped at −80 mV and ligand was applied every 5 min. for 20 min. Over this period the agonist response was stable and compounds were measured in single concentration per well mode. Compounds diluted in extracellular buffer (final assay DMSO concentration 0.3%) were added in a volume of 40 μL and allowed to incubate for 8 min at room temperature. The data was analyzed based on the decrease in peak current amplitude and normalized to the agonist control. Mean values were plotted in Excel XLFit to determine IC50 values, percentage of maximal inhibition and the Hill coefficients.

rat P2X4 = target: T3, rat P2X4 (Rattus norvegicus, UniProt P51577); assay: FLIPR assay, rat P2X4 1321N1 Astrocytoma Cells; details: agonist Mg-ATP at EC80
T3 construct: expressed in transfected cells; host or cells: 1321N1 astrocytoma cells
T3 sequence (P51577 1-388): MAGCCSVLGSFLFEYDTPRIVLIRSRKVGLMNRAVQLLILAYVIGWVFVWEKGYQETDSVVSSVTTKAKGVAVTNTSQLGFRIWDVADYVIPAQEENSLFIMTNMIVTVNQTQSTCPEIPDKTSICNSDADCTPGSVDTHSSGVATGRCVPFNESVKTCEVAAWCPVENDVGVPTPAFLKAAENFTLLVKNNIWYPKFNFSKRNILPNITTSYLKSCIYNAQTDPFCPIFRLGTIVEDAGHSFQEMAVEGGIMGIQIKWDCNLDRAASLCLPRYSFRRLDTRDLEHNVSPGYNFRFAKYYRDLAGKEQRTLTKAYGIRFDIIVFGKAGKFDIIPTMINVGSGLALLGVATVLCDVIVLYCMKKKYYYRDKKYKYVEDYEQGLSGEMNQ
Method: as §1

human P2X4 [2] = target: T2, human P2X4; assay: FLIPR assay, human P2X4 1321N1 Astrocytoma Cells; set-up: expressed in transfected cells; details: agonist Mg-ATP at EC80
Method: as §1

IC50 (mouse P2X4) | Mouse P2X4 1321N1 Astrocytoma Cells (FLIPR Assay) avg Efficacy (mouse P2X4) | IC50 (human P2X4 [1]) | IC50 (rat P2X4) | Rat P2X4 1321N1 Astrocytoma Cells (FLIPR Assay) avg Efficacy (rat P2X4) | Human P2X4 1321N1 Astrocytoma Cells (FLIPR Assay) avg Efficacy (human P2X4 [2]) | IC50 (human P2X4 [2]) | SMILES
0.043 µM | 69% | 0.111 µM | 0.071 µM | 57% | 60% | 0.057 µM | NS(=O)(=O)c1cc(NC(=O)Cc2ccccc2Cl)ccc1-n1cc(C(F)(F)F)cn1 [Example 19, 2-(2-Chlorophenyl)-N-{3-sulfamoyl-4-[4-(trifluoromethyl)-1H-pyrazol-1-yl]phenyl}acetamide]
0.037 µM | 87% | 0.138 µM | 0.308 µM | 87% | 83% | 0.064 µM | N#Cc1cnn(-c2ccc(NC(=O)Cc3ccccc3Cl)cc2S(N)(=O)=O)c1 [Example 39, 2-(2-Chlorophenyl)-N-[4-(4-cyano-1H-pyrazol-1-yl)-3-sulfamoylphenyl]acetamide]
0.026 µM | 87% | 0.057 µM | 0.325 µM | 99% | 80% | 0.046 µM | NS(=O)(=O)c1cc(NC(=O)Cc2ccccc2Cl)ccc1-c1cnn(C(F)F)c1 [Example 326, 2-(2-Chlorophenyl)-N-{4-[1-(difluoromethyl)-1H-pyrazol-4-yl]-3-sulfamoylphenyl}acetamide]
 |  | 0.32 µM |  |  |  |  | NS(=O)(=O)c1cc(NC(=O)Cc2ccccc2Cl)cnc1-n1cc(C(F)(F)F)cn1 [Example 380, 2-(2-Chlorophenyl)-N-{5-sulfamoyl-6-[4-(trifluoromethyl)-1H-pyrazol-1-yl]pyridin-3-yl}acetamide]
